Consider 3 compounds from patent US10619210B2, “Predicting response to epigenetic drug therapy” (THE JOHNS HOPKINS UNIVERSITY, priority 2014, dated 2020).

Type in all cases: cell-based, human
The test system of assay [1] is HCC1569, ZR751, COLO201, HT29, A2780 and TYKNU cells. Description: qRT-PCR validation of AIM genes in two cell lines from each cancer type. Conditions: two cell lines per cancer type. Background: Real-time PCR tracks product formation cycle by cycle.
Description: After total cellular RNA was extracted using the Trizol method (Life Technologies, Carlsbad, Calif.), RNA concentration was determined using the Nanodrop machine and software (Thermo Fisher Scientific, Rockville, Md.). 1 μg total RNA was used to generate cDNA with the QuantiTect Reverse Transcription Kit (Qiagen, Venlo, Netherlands). Quantitative reverse transcription PCR (q-RT-PCR) of CD274, DDX58, HLA-C, IFI6, IFI27, IL-15, IRF7, IRF9, MAEL, and MAGEB2 mRNA was performed using TaqMan assays (Life Technologies, Carlsbad, Calif.) and the Applied Biosystems 7500 Fast real-time PCR system and software. Human β-actin mRNA was used as the endogenous control. The ΔΔCT method was used to calculate relative expression levels. All qRT-PCR assays were carried out in triplicate and then repeated with new cDNA synthesis. Minus RT controls (reverse transcriptase negative cDNA synthesis reactions) were performed for at least one sample per plate.
The test system of assay [2] is ovarian cancer cell lines. Description: GSEA of Agilent 44K expression arrays after low-dose AZA, ovarian cancer cell lines. As to the method:
(§1) In the context of the above background, we explored further our understanding of the global pathway changes after treatment with low doses of the DNMTi AZA in cell lines from multiple common human cancers. A total of 63 cancer cell lines (26 breast, 14 colorectal, and 23 ovarian) were treated with low dose, 500 nM, AZA for three days. DNA and RNA were isolated at multiple time points following initial drug application and analyzed for genome-wide changes in DNA methylation and gene expression (Agilent 44K Expression Array). […] These gene sets could be broadly divided into four categories including cell cycle control (cell cycle, mitosis, meiosis), DNA replication (DNA replication and packaging, transcription), mRNA splicing and translation, and immune response (FIG. 1C,D; Tables 2 and 3). […] See also FIG. 1A. […] See also FIG. 1B. […]
(§2) All data were analyzed using R: A Language and Environment for Statistical Computing. […] These normalized values were then analyzed utilizing the Gene Set Enrichment Analysis by the Broad Institute and data packages (C5BP, Reactome, KEGG). […] TCGA HumanMethylation27K level 3 data was downloaded, standard deviation of Infinium β-values across all primary cancer samples were calculated, and the top one thousand most variable probes were chosen for hierarchical cluster analysis. […]

The test system of assay [3] is breast cancer cell lines. The assay is described as follows: AZA-induced immune gene demethylation and re-expression, breast cancer cell lines.
From the text: (§3) The canonical effects of AZA have traditionally been described as demethylation of promoter regions and subsequent expression of the silenced gene. Many of the pathway changes in response to AZA, such as increased expression of immune genes, may be the result of downstream events elicited by a small number of hubs related to promoter DNA demethylation and associated gene upregulation. We investigated hub networks in our current pan-cancer analyses by first searching, in a genome-wide analysis using the Infinium 450K methylation platform, for genes that have AZA-induced demethylation of cancer-specific, DNA hypermethylated, CpG islands associated with proximal promoter regions. The total number of such demethylated genes in the cell lines from breast, ovarian and colorectal cancers was 162 (FIG. 8A). […]
as §2

Assay [4] deals with A2780 ovarian cancer cells. The assay is described as follows: qRT-PCR of AIM genes in A2780 after AZA or carboplatin. Conditions: 500 nM for 72 hours, then 7 days recovery without drug. As to the method:
FIG. 9A-9D. AIM genes are induced by TSA but not by chemotherapeutic agents. […] FIG. 9B: Box plots of AIM genes after TSA treatment. FIG. 9C: Box plots of AIM genes in DKO cells compared to the parent HCT116 cell line. The orange lines indicate 2 fold change. FIG. 9D: A2780 ovarian cancer cells were treated with 500 nM AZA or carboplatin for 72 hours, then allowed to recover for 7 days without drug before RNA was isolated. qRT-PCR was performed for IFI27, IL-15, IRF7, and MAGEB2 genes. Blue bars indicate Mock treatment, purple indicate AZA, and orange indicate carboplatin. Fold change is plotted on the Y axis. Each bar represents the average and standard deviation of three biological replicates. […]
After total cellular RNA was extracted using the Trizol method (Life Technologies, Carlsbad, Calif.), RNA concentration was determined using the Nanodrop machine and software (Thermo Fisher Scientific, Rockville, Md.). 1 μg total RNA was used to generate cDNA with the QuantiTect Reverse Transcription Kit (Qiagen, Venlo, Netherlands). Quantitative reverse transcription PCR (q-RT-PCR) of CD274, DDX58, HLA-C, IFI6, IFI27, IL-15, IRF7, IRF9, MAEL, and MAGEB2 mRNA was performed using TaqMan assays (Life Technologies, Carlsbad, Calif.) and the Applied Biosystems 7500 Fast real-time PCR system and software. […]

Assay [5] has as its system 63 cancer cell lines (26 breast, 14 colorectal, and 23 ovarian). Description: GSEA gene sets common to 63 cancer cell lines (breast, colorectal, ovarian) after AZA. As to the method:
In the context of the above background, we explored further our understanding of the global pathway changes after treatment with low doses of the DNMTi AZA in cell lines from multiple common human cancers. A total of 63 cancer cell lines (26 breast, 14 colorectal, and 23 ovarian) were treated with low dose, 500 nM, AZA for three days. DNA and RNA were isolated at multiple time points following initial drug application and analyzed for genome-wide changes in DNA methylation and gene expression (Agilent 44K Expression Array). […] These gene sets could be broadly divided into four categories including cell cycle control (cell cycle, mitosis, meiosis), DNA replication (DNA replication and packaging, transcription), mRNA splicing and translation, and immune response (FIG. 1C,D; Tables 2 and 3). […] See also FIG. 1A. […] See also FIG. 1B.
63 cell lines (26 breast cancer, 14 colorectal cancer, 23 ovarian cancer) were used in these experiments. Breast cell lines included BT20, BT474, CAMA1, EFM19, MDA453, MDA468, MDA361, MCF7, MDA231, T47D, HCC1500, and HCC1187 obtained from the American Type Tissue Collection; HCC1419, HCC38, EFM192A, HCC1569, HCC1937, HCC1954, MDA175, MDA415, MDA436, SUM149, SUM159, SKBR3, ZR751, and ZR7530 from Dr. Dennis Slamon. All cells were maintained under recommended conditions. Colorectal cell lines were all obtained from the American Type Tissue Collection and were maintained under recommended conditions. These included CACO-2, Colo201, Colo205, Colo320, DLD1, HCT116, HT29, Lovo, RKO, SK-CO1, SNUC-1, SW48, SW480, and SW620. Ovarian cell lines were obtained from the laboratory of Dr. Dennis Slamon and included A2780, CAOV3, DOV13, EFO27, ES2, Hey, HEYC2, Kuramochi, OAW28, OAW42, OV167, OV2008, OV90, OVCA429, OVCA432, OVMANA, OVCAR3, OVCAR5, OVKATE, PEO14, SKOV3, TOV112D, and TykNu; these were maintained under the ATCC recommended conditions.
Cell lines were treated with 500 nM of AZA or carboplatin (Sigma; St. Louis, Mo.) for 72 hours while in log-growth phase, changing the media and drug every 24 hours for AZA treatment. To select an appropriate chemotherapy control, the carboplatin dose that had the similar growth inhibitory effect to 500 nM AZA after 10 days was selected. Cells were harvested at 1, 3, 7, 10, 14, 21, or 28 days following initial application of drug. […]
as §2

For assay [6], the system named is breast cancer cell lines. Description: GSEA of Agilent 44K expression arrays after low-dose AZA, breast cancer cell lines. The method, then:
as §1, §2

The test system of assay [7] is colorectal cancer cell lines. The assay is described as follows: AZA-induced immune gene demethylation and re-expression, colorectal cancer cell lines.
From the text: as §3, §2

Assay [8] relates to cell lines from breast, ovarian and colorectal cancers. The assay is described as follows: AZA-induced promoter CpG island demethylation and re-expression (Infinium 450K), all three cancer types. The source says: The canonical effects of AZA have traditionally been described as demethylation of promoter regions and subsequent expression of the silenced gene. Many of the pathway changes in response to AZA, such as increased expression of immune genes, may be the result of downstream events elicited by a small number of hubs related to promoter DNA demethylation and associated gene upregulation. We investigated hub networks in our current pan-cancer analyses by first searching, in a genome-wide analysis using the Infinium 450K methylation platform, for genes that have AZA-induced demethylation of cancer-specific, DNA hypermethylated, CpG islands associated with proximal promoter regions. The total number of such demethylated genes in the cell lines from breast, ovarian and colorectal cancers was 162 (FIG. 8A). […] The highest percentages of these demethylation and re-expression events were again seen in immune genes; 26%, of the 162 genes were categorized as immune related (FIG. 8B,C). Overall, immune gene demethylation and re-expression was again highest in ovarian cancer cell lines (53.8%) followed by colorectal (42.8%) and breast (30.7%) cancer cell lines (FIG. 8B). Of note, amongst these 162 genes, 8 (4.9%) were also in our AIM gene set (BNIP3, HERC5, ICAM1, IRF7, MX1, MST1R, PSMB8, TCRIG1) with IRF7, a member of the interferon regulatory factor family of transcription factors in particular being notable for being a canonical demethylated and reexpressed gene.
Cell lines were treated with 500 nM of AZA or carboplatin (Sigma; St. Louis, Mo.) for 72 hours while in log-growth phase, changing the media and drug every 24 hours for AZA treatment. To select an appropriate chemotherapy control, the carboplatin dose that had the similar growth inhibitory effect to 500 nM AZA after 10 days was selected. Cells were harvested at 1, 3, 7, 10, 14, 21, or 28 days following initial application of drug. DNA and RNA were obtained using standard protocols. RNA from 63 cell lines was sent for the Agilent 44K Expression Array and DNA from 53 cell lines was sent for the Illumina 450K Methylation Array.
All data were analyzed using R: A Language and Environment for Statistical Computing. Expression normalization of cell line data was performed using the package Limma as previously described. Data was normalized within each tumor type (breast, colorectal, and ovarian). These normalized values were then analyzed utilizing the Gene Set Enrichment Analysis by the Broad Institute and data packages (C5BP, Reactome, KEGG). […] TCGA HumanMethylation27K level 3 data was downloaded, standard deviation of Infinium β-values across all primary cancer samples were calculated, and the top one thousand most variable probes were chosen for hierarchical cluster analysis. […]

Assay [9] deals with lung cancer cell lines. Description: GSEA of lung cancer cell lines treated with the same AZA dosing schedule. Conditions: 14 lung cancer cell lines.
The test system of assay [10] is ovarian cancer cell lines. The assay is described as follows: AZA-induced immune gene demethylation and re-expression, ovarian cancer cell lines.
From the text: as §3, §2

Assay [11] relates to colorectal cancer cell lines. The assay is described as follows: GSEA of Agilent 44K expression arrays after low-dose AZA, colorectal cancer cell lines. The method, then: as §1, §2
Assay [12] has as its system colon cancer cell lines. The assay is described as follows: AIM gene expression in colon cancer cell lines after TSA. The conditions noted are these: six colon cancer cell lines, 300 nM TSA for 18 hours. The method, then:
FIG. 9A-9D. AIM genes are induced by TSA but not by chemotherapeutic agents. […] FIG. 9B: Box plots of AIM genes after TSA treatment. FIG. 9C: Box plots of AIM genes in DKO cells compared to the parent HCT116 cell line. The orange lines indicate 2 fold change. FIG. 9D: A2780 ovarian cancer cells were treated with 500 nM AZA or carboplatin for 72 hours, then allowed to recover for 7 days without drug before RNA was isolated. qRT-PCR was performed for IFI27, IL-15, IRF7, and MAGEB2 genes. Blue bars indicate Mock treatment, purple indicate AZA, and orange indicate carboplatin. Fold change is plotted on the Y axis. Each bar represents the average and standard deviation of three biological replicates.
It is especially noteworthy that the DKO cell line (haplo-insufficient for DNMT1 and null for DNMT3B), which is shown as a genetic mimic of AZA treatment (FIG. 2B, FIG. 7) induces significant upregulation for most AIM genes (FIG. 9A, C). To determine whether this was specific to DNMT inhibitors, we also treated cells with an HDAC inhibitor (TSA) that has been used extensively in our laboratory. […] This activation appears to be in response to epigenetic agents and not the result of a general cell stress response that could be elicited by chemotherapeutics such as carboplatin.

Setting [13] is: 500 nM AZA for three days, NES>2.15, FDR<0.25.

As to `Nc1ncn([C@@H]2O[C@H](CO)[C@@H](O)[C@H]2O)c(=O)n1` [AZA, 5-azacitidine], in assay [1], the “qRT-PCR validation of AZA-induced re-expression of selected AIM (interferon response) genes” value is listed as “Each chosen gene validated”. Moreover, the “qRT-PCR validation of upregulation of selected antigen presentation pathway genes” value in assay [1] is “validated”. Further, the “Overall immune pathway upregulation (percent of upregulated GSEA gene sets that are immune-related)” value was 31.3% in assay [2] (ovarian cancers, 500 nM AZA for three days, NES>2.15, FDR<0.25); 16.9% in [6] (setting [13]); 14.4% in assay [11] (setting [13]). Also, the “upregulation of cancer testis antigens gene set (percent of cell lines)” value in assay [2] (ovarian, GSEA NES>2.15, FDR<0.25) came out at 39.1%; in [6] (GSEA NES>2.15, FDR<0.25), 19.2%; in assay [11] (GSEA NES>2.15, FDR<0.25), 64.3%. Besides, the “immune gene demethylation and re-expression (percent of cell lines)” value turned out to be 30.7% in assay [3], 42.8% in assay [7] and 53.8% in [10]. In addition, the “expression of AIM genes IFI27, IRF7, IL15, MAGEB2 (qRT-PCR)” value in [4] is given as “increased”. The “immune gene sets showing upregulation by AZA (15/16 gene sets)” value in assay [5] (500 nM AZA for three days) is 93.7%. The “downregulated GSEA gene sets common between the three cancer types” value in assay [5] (500 nM AZA for three days, NES<-2.15, FDR<0.25) is recorded as 52 gene sets. In addition, in assay [5] (setting [13]), the “upregulated GSEA gene sets common between the three cancer types” value was 80 gene sets. Further, the “enrichment for immunomodulatory pathways in all three cancers” value in [5] (range over breast, colorectal, ovarian) was 14.4-31.3%. Moreover, the “share of the 162 demethylated/re-expressed genes categorized as immune related” value in [8] stood at 26%. The “subset of the 162 genes showing demethylation and re-expression in all three cancer types” value in assay [8] is reported as 4.9%. The “number of the 162 demethylated/re-expressed genes also in AIM gene set” value in assay [8] (8 (4.9%)) was 8 genes. In addition, in assay [8] (basal β ≥0.5, Δβ(AZA-Mock)≤-0.25, >2-fold expression), the “total number of demethylated (and re-expressed) genes” value amounted to 162 genes. Moreover, the “gene sets common to breast, colon, and ovarian cell lines also upregulated in the lung cancer cell lines (76/80)” value in [9] stood at 95%. The “significantly upregulated pathways that were immune related” value in assay [9] was 23.3%.
As for `CC(/C=C/C(=O)NO)=C\[C@@H](C)C(=O)c1ccc(N(C)C)cc1` [TSA], in assay [12], the “regulation of AIM genes” value is “regulates subsets of AIM genes but not as uniformly or robustly as DKO cells or AZA treated cells”.
Regarding `N.N.O=C([O-])C1(C(=O)[O-])CCC1.[Pt+2]` [carboplatin], the “expression of AIM genes IFI27, IRF7, IL15, MAGEB2 (qRT-PCR)” value in assay [4] is given as “does not lead to overexpression”.
